# Key:
# [1] = system: Mycobacterium tuberculosis variant bovis; test: Antimycobacterial activity against Mycobacterium bovis BCG ATCC 35734 assessed as growth inhibition at 10 uM after 5 days relative to control; assay type: functional; details: ATCC 35734, 120 h, read-out: GI
# [2] = system: Mycobacterium tuberculosis variant bovis; test: Antimycobacterial activity against Mycobacterium bovis BCG ATCC 35734 after 5 days by broth dilution method; assay type: functional; details: ATCC 35734, 120 h
Structure (SMILES),inhibition of growth at 10 µM [1] [%],MIC50 [2] [µM],MIC90 [2] [µM]
CCCCCCCCn1cc(CN2CCC(C)CC2)c2ccc(OC)cc21,99,3,5
Fc1ccc2c(c1)c(CN1CCCCC1)cn2CCCc1ccccc1,99,10,20
CCCCCCCCn1cc(CN2CCCCCC2)c2cccc(F)c21,99,5,8
CCCCCCn1cc(CN2CCCCCC2)c2c(F)cccc21,99,8,13
CCCCCCCCn1cc(CN2CCCCCC2)c2cc(F)ccc21,99,4,6
CCCCCCCCn1cc(CN2CCCCCC2)c2cc(OC)ccc21,99,4,5
CCCCCCCCn1cc(CN2CCCCCC2)c2ccc(OC)cc21,99,4,6
CC(C)=CCC/C(C)=C/Cn1cc(CNC23CC4CC(CC(C4)C2)C3)c2cc(F)ccc21,99,17.5,25.5
CCCN(C)Cc1cn(C/C=C(\C)CCC=C(C)C)c2ccc(F)cc12,99,13,28.5
CCCCCCCCn1cc(CN2CCCCC2)c2ccc(OC)cc21,99,7,13
CC(C)=CCC/C(C)=C/Cn1cc(CN2CCCCC2)c2cc(Cl)ccc21,99,7,10
CCCN(CC)Cc1cn(C/C=C(\C)CCC=C(C)C)c2ccc(F)cc12,99,13,25
O=C(Cn1cc(CN2CCCCC2)c2cc(F)ccc21)NC1CC1,99,> 50,> 50
CCCCCCCCn1cc(CN2CCOCC2)c2cc(F)ccc21,99,16,> 50
CCCCCCCCn1cc(CN2CCC(C)CC2)c2cccc(F)c21,99,4,6
CCN1CCN(Cc2cn(C/C=C(\C)CCC=C(C)C)c3ccc(F)cc23)CC1,99,13,25
CCCCCCCCn1cc(CNC23CC4CC(CC(C4)C2)C3)c2ccc(OC)cc21,99,3,6
CCCCCCCCn1cc(C(=O)N2CCCCCC2)c2cc(F)ccc21,99,> 50,> 50
CCCCCCCCn1cc(CN2CCCCC2)c2c(F)cccc21,99,6,11
CCCCCCCCn1cc(CN2CCC3(CC2)OCCO3)c2cc(F)ccc21,99,3,5
CCCCCCCCn1cc(CN2CCCCC2)c2cccc(F)c21,99,8,11
CCCCCCCCn1ccc2cc(F)ccc21,99,> 50,> 50
CCCCCCCCn1cc(CN2CCC3(CC2)OCCO3)c2cccc(OC)c21,99,28,42
CCCCCCCCn1cc(CN2CCCCC2)c2cccc(OC)c21,99,8,11
Fc1ccc2c(c1)c(CN1CCCCC1)cn2Cc1ccccc1,99,35,> 50
CCCCCCCCn1cc(CNC23CC4CC(CC(C4)C2)C3)c2cc(OC)ccc21,99,3,5
CC(C)=CCC/C(C)=C/Cn1cc(CN2CCSCC2)c2cc(F)ccc21,99,15,23
CCCCCCCCn1cc(CN2CCC3(CC2)OCCO3)c2ccc(F)cc21,99,3,5

Structure (SMILES),inhibition of growth at 10 µM [1] [%],MIC50 [2] [µM],MIC90 [2] [µM]
CCCCCCCCn1cc(CN2CCC3(CC2)OCCO3)c2c(F)cccc21,99,3,6
CCCCCCCCn1cc(CNC23CC4CC(CC(C4)C2)C3)c2c(F)cccc21,99,2,3
Fc1cccc2[nH]cc(CN3CCCCCC3)c12,99,> 50,> 50
CCCCn1cc(CN2CCCCCC2)c2c(F)cccc21,99,10,23
CCCCCCCCn1cc(CNCCC)c2cc(F)ccc21,99,10,20
CCCCCCCCn1cc(CN2CCCCC2)c2cc(OC)ccc21,99,5,7.5 to 8
CCCCCCCCn1cc(CN(C)CCC)c2cc(F)ccc21,99,12,35
CCCCCCCCn1cc(CN(C)C)c2cc(F)ccc21,99,14,20
CC(C)=CCC/C(C)=C/Cn1cc(CN2CCCCC2)c2cc(Br)ccc21,99,8,10
CCCCCCCCn1cc(CN2CCC(C)CC2)c2cc(OC)ccc21,99,4,6
CC(C)=CCC/C(C)=C/Cn1cc(CN2CCCCC2)c2cccnc21,99,> 50,> 50
CCCCCCCCn1cc(CN2CCCCCC2)c2c(OC)cccc21,99,6,11
CCCCCCCCCCn1cc(CN2CCCCCC2)c2c(F)cccc21,99,10,15
CC(C)=CCC/C(C)=C/Cn1cc(CNC2CCCC2)c2cc(F)ccc21,99,8,14
CC(C)=CCC/C(C)=C/Cn1cc(CN2CCC(C)CC2)c2cc(F)ccc21,99,4,6
CCCCCCCCn1cc(CN2CCCCC2)c2ccccc21,99,14,31
CCCCCCCCn1cc(CN2CCC(C)CC2)c2ccc(F)cc21,99,4,5
CCCCCCCCn1cc(CN2CCC(C)CC2)c2c(OC)cccc21,99,10,18
CCCCN(CCCC)Cc1cn(C/C=C(\C)CCC=C(C)C)c2ccc(F)cc12,99,13,25.5
CC(C)=CCC/C(C)=C/Cn1cc(CN2CCOCC2)c2cc(F)ccc21,99,15.5,> 50
CCCCCCCCn1cc(CN2CCCC2)c2cc(F)ccc21,99,10,24
CCCCCCCCn1cc(CN(CCC)CCC)c2cc(F)ccc21,99,11,35
CCCCCCCCn1cc(CNC2CCCC2)c2cc(F)ccc21,99,6,21
CCCCCCCCn1cc(CN2CCC(C)CC2)c2cc(F)ccc21,99,4,6
CC(C)=CCC/C(C)=C/Cn1cc(CN2CCS(=O)(=O)CC2)c2cc(F)ccc21,99,> 50,> 50
CCCN(CCC)Cc1cn(C/C=C(\C)CCC=C(C)C)c2ccc(F)cc12,99,18,39
CCCCCCCCn1cc(CN2CCC(C)CC2)c2cccc(OC)c21,99,4,8

# Reference: ChEMBL document CHEMBL4007488, “Amphiphilic Indole Derivatives as Antimycobacterial Agents: Structure-Activity Relationships and Membrane Targeting Properties” (J Med Chem, 2017)
